Literature values, collected in US20070135444A1, “Treatment of neuroblastoma” (priority 2002, published 2007).

Conditions: pediatric phase I trial; no maximal dose tolerated reached up to this dose

For CS(=O)(=O)O.Cc1ccc(NC(=O)c2ccc(CN3CCN(C)CC3)cc2)cc1Nc1nccc(-c2cccnc2)n1 [SALT I], the maximal dose tolerated is listed as > 570 mg/m^2/day.
